Reference: publication PMC11003488 (Journal of Enzyme Inhibition and Medicinal Chemistry, 2023)

Experiments:
[1] = tested on: CCRF-CEM; assay: NCI-60 SRB growth inhibition, one-dose and five-dose; assay type: cell-based; conditions: Homo sapiens, read-out: percent growth inhibition
[2] = tested on: HL-60(TB); assay: cells; assay type: cell-based; conditions: Homo sapiens, HL-60, read-out: percent growth inhibition
[3] = tested on: K-562; assay: NCI-60 SRB growth inhibition, one-dose and five-dose; assay type: cell-based; conditions: Homo sapiens, K562, read-out: percent growth inhibition
[4] = tested on: MOLT-4; assay: as above; assay type: cell-based; conditions: Homo sapiens, MOLT-4, read-out: percent growth inhibition
[5] = tested on: A549/ATCC; assay: as above; assay type: cell-based; conditions: Homo sapiens, A549, read-out: percent growth inhibition
[6] = tested on: EKVX; assay: as above; assay type: cell-based; conditions: Homo sapiens, read-out: percent growth inhibition
[7] = tested on: HOP-62; assay: as above; assay type: cell-based; conditions: Homo sapiens, HOP-62, read-out: percent growth inhibition
[8] = tested on: HOP-92; assay: as above; assay type: cell-based; conditions: Homo sapiens, HOP-92, read-out: percent growth inhibition
[9] = tested on: NCI-H226; assay: as above; assay type: cell-based; conditions: Homo sapiens, NCI-H226, read-out: percent growth inhibition
[10] = tested on: NCI-H522; assay: as above; assay type: cell-based; conditions: Homo sapiens, NCI-H522, read-out: percent growth inhibition
[11] = tested on: COLO 205; assay: as above; assay type: cell-based; conditions: Homo sapiens, COLO 205, read-out: percent growth inhibition
[12] = tested on: HCC-2998; assay: as above; assay type: cell-based; conditions: Homo sapiens, HCC 2998, read-out: percent growth inhibition
[13] = tested on: HCT-116; assay: as above; assay type: cell-based; conditions: Homo sapiens, HCT-116, read-out: percent growth inhibition
[14] = tested on: HCT-15; assay: as above; assay type: cell-based; conditions: Homo sapiens, HCT-15, read-out: percent growth inhibition
[15] = tested on: KM12; assay: as above; assay type: cell-based; conditions: Homo sapiens, KM12, read-out: percent growth inhibition
[16] = tested on: SF-268; assay: as above; assay type: cell-based; conditions: Homo sapiens, SF-268, read-out: percent growth inhibition
[17] = tested on: SF-539; assay: as above; assay type: cell-based; conditions: Homo sapiens, SF-539, read-out: percent growth inhibition
[18] = tested on: SNB-19; assay: as above; assay type: cell-based; conditions: Homo sapiens, SNB-19, read-out: percent growth inhibition
[19] = tested on: U251; assay: as above; assay type: cell-based; conditions: Homo sapiens, U-251, read-out: percent growth inhibition
[20] = tested on: LOX IMVI; assay: as above; assay type: cell-based; conditions: Homo sapiens, read-out: percent growth inhibition
[21] = tested on: MALME-3M; assay: as above; assay type: cell-based; conditions: Homo sapiens, read-out: percent growth inhibition
[22] = tested on: MDA-MB-435; assay: as above; assay type: cell-based; conditions: Homo sapiens, MDA-MB-435, read-out: percent growth inhibition
[23] = tested on: SK-MEL-2; assay: as above; assay type: cell-based; conditions: Homo sapiens, SK-MEL-2, read-out: percent growth inhibition
[24] = tested on: SK-MEL-28; assay: as above; assay type: cell-based; conditions: Homo sapiens, SK-MEL-28, read-out: percent growth inhibition
[25] = tested on: SK-MEL-5; assay: as above; assay type: cell-based; conditions: Homo sapiens, SK-MEL-5, read-out: percent growth inhibition
[26] = tested on: IGROV1; assay: as above; assay type: cell-based; conditions: Homo sapiens, IGROV-1, read-out: percent growth inhibition
[27] = tested on: OVCAR-3; assay: as above; assay type: cell-based; conditions: Homo sapiens, OVCAR-3, read-out: percent growth inhibition
[28] = tested on: OVCAR-4; assay: as above; assay type: cell-based; conditions: Homo sapiens, OVCAR-4, read-out: percent growth inhibition
[29] = tested on: OVCAR-5; assay: as above; assay type: cell-based; conditions: Homo sapiens, OVCAR-5, read-out: percent growth inhibition
[30] = tested on: OVCAR-8; assay: as above; assay type: cell-based; conditions: Homo sapiens, OVCAR-8, read-out: percent growth inhibition
[31] = tested on: A498; assay: as above; assay type: cell-based; conditions: Homo sapiens, A498, read-out: percent growth inhibition
[32] = tested on: CAKI-1; assay: as above; assay type: cell-based; conditions: Homo sapiens, CAKI-1, read-out: percent growth inhibition
[33] = tested on: RXF 393; assay: as above; assay type: cell-based; conditions: Homo sapiens, RXF 393, read-out: percent growth inhibition
[34] = tested on: PC-3; assay: as above; assay type: cell-based; conditions: Homo sapiens, PC-3, read-out: percent growth inhibition
[35] = tested on: DU-145; assay: as above; assay type: cell-based; conditions: Homo sapiens, DU-145, read-out: percent growth inhibition
[36] = tested on: MCF7; assay: as above; assay type: cell-based; conditions: Homo sapiens, MCF7, read-out: percent growth inhibition
[37] = tested on: HS 578 T; assay: as above; assay type: cell-based; conditions: Homo sapiens, read-out: percent growth inhibition
[38] = tested on: BT-549; assay: as above; assay type: cell-based; conditions: Homo sapiens, BT-549, read-out: percent growth inhibition
[39] = tested on: T-47D; assay: as above; assay type: cell-based; conditions: Homo sapiens, T47D, read-out: percent growth inhibition
[40] = tested on: MDA-MB-468; assay: as above; assay type: cell-based; conditions: Homo sapiens, MDA-MB-468, read-out: percent growth inhibition
[41] = tested on: NCI 60-cell line panel (full panel); assay: NCI-60 SRB growth inhibition, full panel mean / MG-MID; assay type: cell-based, human; conditions: mean over NCI-60 panel; single dose 10 µM
[42] = tested on: SR; assay: NCI-60 SRB growth inhibition, one-dose and five-dose; assay type: cell-based; conditions: Homo sapiens, read-out: percent growth inhibition

Structure (SMILES): CC(=O)Nc1ccc(CNc2cccc(C(=O)/C=C/c3c[nH]cn3)c2)cc1 [Compound 5l, (E)-N-(4-(((3–(3-(1H-imidazol-4-yl)acryloyl)phenyl)amino)methyl)phenyl)acetamide]
- inhibition at 10 µM [1]: 98%
- inhibition at 10 µM [2]: 65.2%
- inhibition at 10 µM [3]: 80.8%
- inhibition at 10 µM [4]: 40.3%
- inhibition at 10 µM [5]: 7.54%
- inhibition at 10 µM [6]: 24.8%
- inhibition at 10 µM [7]: 5.06%
- inhibition at 10 µM [8]: 12.3%
- inhibition at 10 µM [9]: 21.7%
- inhibition at 10 µM [10]: 64.2%
- inhibition at 10 µM [11]: -8.23%
- inhibition at 10 µM [12]: -2.31%
- inhibition at 10 µM [13]: 29.4%
- inhibition at 10 µM [14]: 14.3%
- inhibition at 10 µM [15]: 43.6%
- inhibition at 10 µM [16]: 19.4%
- inhibition at 10 µM [17]: 14.1%
- inhibition at 10 µM [18]: 26.6%
- inhibition at 10 µM [19]: 48.3%
- inhibition at 10 µM [20]: 45.3%
- inhibition at 10 µM [21]: 26.4%
- inhibition at 10 µM [22]: 11%
- inhibition at 10 µM [23]: 12.8%
- inhibition at 10 µM [24]: 13.4%
- inhibition at 10 µM [25]: 16%
- inhibition at 10 µM [26]: 8.09%
- inhibition at 10 µM [27]: 33.8%
- inhibition at 10 µM [28]: 17.3%
- inhibition at 10 µM [29]: 5.08%
- inhibition at 10 µM [30]: 8.86%
- inhibition at 10 µM [31]: 11.1%
- inhibition at 10 µM [32]: 12.4%
- inhibition at 10 µM [33]: 37.7%
- inhibition at 10 µM [34]: 7.64%
- inhibition at 10 µM [35]: 11.1%
- inhibition at 10 µM [36]: 81.8%
- inhibition at 10 µM [37]: 7.6%
- inhibition at 10 µM [38]: 34.9%
- inhibition at 10 µM [39]: 56.9%
- inhibition at 10 µM [40]: 84%
- Full panel Mean GI % [41]: 24.10%

Structure (SMILES): O=C(/C=C/c1c[nH]cn1)c1cccc(NCc2ccc(CO)cc2)c1 [Compound 5m, (E)-1–(3-((4-(hydroxymethyl)benzyl)amino)phenyl)-3-(1H-imidazol-4-yl)prop-2-en-1-one]
- inhibition at 10 µM [1]: 45.6%
- inhibition at 10 µM [2]: 65.9%
- inhibition at 10 µM [3]: 80.4%
- inhibition at 10 µM [4]: 28.5%
- inhibition at 10 µM [42]: 92.9%
- inhibition at 10 µM [5]: 14.1%
- inhibition at 10 µM [6]: 32.2%
- inhibition at 10 µM [7]: 13.9%
- inhibition at 10 µM [8]: 22.2%
- inhibition at 10 µM [9]: 14.6%
- inhibition at 10 µM [10]: 89.4%
- inhibition at 10 µM [11]: -0.06%
- inhibition at 10 µM [12]: -0.68%
- inhibition at 10 µM [13]: 36.5%
- inhibition at 10 µM [14]: 21.5%
- inhibition at 10 µM [15]: 9.57%
- inhibition at 10 µM [16]: 8.96%
- inhibition at 10 µM [17]: 11%
- inhibition at 10 µM [18]: 16.8%
- inhibition at 10 µM [19]: 56%
- inhibition at 10 µM [20]: 58.6%
- inhibition at 10 µM [21]: 23.1%
- inhibition at 10 µM [22]: 8.36%
- inhibition at 10 µM [24]: 6.66%
- inhibition at 10 µM [25]: 21.7%
- inhibition at 10 µM [26]: 9.93%
- inhibition at 10 µM [27]: 5.3%
- inhibition at 10 µM [28]: 22%
- inhibition at 10 µM [29]: -1.46%
- inhibition at 10 µM [30]: 15.4%
- inhibition at 10 µM [31]: 2.28%
- inhibition at 10 µM [32]: 8.35%
- inhibition at 10 µM [33]: 38.3%
- inhibition at 10 µM [34]: 11.3%
- inhibition at 10 µM [35]: 6.04%
- inhibition at 10 µM [36]: 66%
- inhibition at 10 µM [37]: 4.31%
- inhibition at 10 µM [38]: 34%
- inhibition at 10 µM [39]: 47.8%
- inhibition at 10 µM [40]: 80.5%
- Full panel Mean GI % [41]: 25.19%
